Columns and labels:
ETB receptors = test: ETB receptor expression in tissues of hemorrhaged rats (western blot); format: in vivo, rat; details: for change in ETB receptor expression, abdominal aorta / change in ETB receptor expression, kidney medulla: compared to untreated hemorrhaged rats
Description: (§1) Induction of Hemorrhagic Shock. Hemorrhage was induced by withdrawing blood from the femoral artery at a rate of approximately 0.5 to 1 mL/min until a MAP of 35 mmHg was reached. This MAP was maintained for 30 min by further withdrawal of blood, if necessary. The hemorrhagic shock model used in the present study is a well-established rodent model of manageable pressure hemorrhage (Buehler et al. 2000; Gulati et al. 1997a; Gulati and Sen 1998). The volume of blood loss was about approximately 8.0 ml in each rat and was similar in various groups, amounting to approximately 40% of the total blood. Measured hematocrit levels were similar in various groups. The duration of blood withdrawal was approximately 15 minutes.
Experimental design. To determine the resuscitative effect of centhaquin on cardiovascular system and plasma cytokines in hemorrhagic shock, rats were randomly divided into five groups, Group 1: Sham control (Non-hemorrhaged) (n=5), Group 2: Hemorrhage with no resuscitation (n=5); Group 3: Hemorrhage followed by resuscitation with 3% hypertonic saline (vehicle) (n=5); Group 4: Hemorrhage followed by resuscitation with vehicle plus centhaquin (0.017 mg/kg) (n=5); and Group 5: Hemorrhage followed by resuscitation with vehicle plus centhaquin (0.05 mg/kg) (n=5). Resuscitation was started 30 min after induction of hemorrhagic shock as an intravenous infusion (1 mL/min) through femoral vein using an infusion pump (Harvard Apparatus Infusion/Withdrawal Pump, Millis, MA). The blood samples, for biochemical estimations, were collected at 30 minutes of resuscitation and cardiovascular parameters were monitored till 60 minutes after which the animal was sacrificed. The volume of resuscitative solution was kept equal to the volume of blood loss.
Estimation of ETA and ETB receptor expression. Expression of ETA and ETB receptors was determined using the western blotting technique (Briyal et al. 2015; Leonard and Gulati 2013) with some modifications. After completion of cardiovascular experiments animals were sacrificed and the organs (brain, heart, liver, lung, kidney and abdominal aorta) were immediately dissected out, flash frozen on dry ice, and stored at −80° C. for further analysis. The tissue was homogenized with 10×(w/v) RIPA lysis buffer (20 mM Tris-HCl pH 7.5, 120 mM NaCl, 1.0% TritonX-100, 1.0% sodium deoxycholate, 0.1% sodium dodecyl sulfate (SDS), 10% glycerol, 1 mM disodium ethylene diamine tetraacetic acid (EDTA), 1 mM ethylene glycol-bis(β-aminoethyl ether)-N,N,N′,N′-tetraacetic acid tetrasodium salt (EGTA), phosphatase inhibitors and Complete Mini Protease inhibitor cocktail tablet (Roche Diagnostics, Indianapolis, IN). Proteins were isolated in solubilized form and concentrations were measured by Folin-Ciocalteu's phenol reagent (Lowry et al. 1951). Solubilized protein (60 μg) was denatured in Laemmli sample buffer (Bio-Rad Laboratories, Hercules, CA), resolved on 10% sodium dodecyl sulfate-polyacrylamide gel electrophoresis (SDS-PAGE) and then transferred onto the nitrocellulose membrane followed by blocking the membrane with SuperBlock® Blocking Buffer in tris-buffered saline (TBS) (ThermoFisher Scientific, Hanover Park, IL). The membranes were washed three times with 1×TBS-Tween (TBST) and incubated with rabbit polyclonal anti-ETA receptor (ab85163, Abcam, Cambridge, MA, 1:1000) or anti-ETB receptor (ab117529, Abcam, Cambridge, MA, 1:1000) or mouse monoclonal anti-β-actin (a1978, Sigma-Aldrich, St. Louis, MO) antibodies, followed by horseradish peroxidase (HRP)-conjugated secondary antibodies goat anti-rabbit (sc2004, Santa Cruz Biotechnology, Dallas, TX, 1:2000) or goat anti-mouse (ab98693, Abcam, Cambridge, MA, 1:10,000) and visualized by SuperSignal® West Pico Chemiluminescent Substrate (ThermoFisher Scientific, Hanover Park, IL) using the ChemiDoc™ MP Imaging System (Bio-Rad Laboratories, Hercules, CA) and then analyzed using ImageJ (NIH) software.

TNF-α = test: Plasma TNF-α in hemorrhaged rats (ELISA); format: in vivo, rat; details: p<0.01
Description: as §1
(§2) Experimental design. […] The blood samples, for biochemical estimations, were collected at 30 minutes of resuscitation and cardiovascular parameters were monitored till 60 minutes after which the animal was sacrificed. […]

IL-6 = test: Plasma IL-6 in hemorrhaged rats (ELISA); format: in vivo, rat; details: p<0.01
Description: as §1, §2

IL-10 = test: Plasma IL-10 in hemorrhaged rats (ELISA); details: rat, in vivo
Description: as §1, §2

[1] = Phase II study of PMZ-2010 as resuscitative agent for hypovolemic shock (CTRI/2017/03/008184), interim analysis; format: in vivo, human
Description: A prospective, multi-centric, randomized, double-blind, parallel, saline controlled phase II study of PMZ-2010 (centhaquin) as a resuscitative agent for hypovolemic shock due to excessive blood loss (CTRI/2017/03/008184) is being conducted. All subjects received standard treatment for shock (the type of treatment and care the enrolling institution would provide). Patients were randomly assigned to either control cohort (N=7) that received standard treatment along with normal saline or PMZ-2010 cohort (N=12) that received standard treatment along with PMZ-2010.

[2] = cited from earlier work

Cc1cccc(N2CCN(CCc3ccc4ccccc4n3)CC2)c1 [centhaquin, 2-[2-(4-(3-methyphenyl)-1-piperazinyl)]ethyl-quinoline]
change in ETB receptor expression, abdominal aorta (ETB receptors; centhaquin 0.017 mg/kg): 79.7%
change in ETB receptor expression, kidney medulla (ETB receptors; centhaquin 0.017 mg/kg): 76.6%
change in ETB receptor expression, abdominal aorta (ETB receptors; centhaquin 0.05 mg/kg): 57.4%
change in ETB receptor expression, kidney medulla (ETB receptors; centhaquin 0.05 mg/kg): 69.4%
change in ETB expression, abdominal aorta (summary) (ETB receptors; dose not given): 79%
ETB receptor expression in brain, heart, liver, lungs and kidney cortex (ETB receptors; hemorrhage and resuscitation): no change
shock-induced decrease (−34%) in ETB expression, renal medulla (ETB receptors; summary, not attenuated by saline): completely attenuated
plasma TNF-α level compared to hypertonic saline alone (TNF-α): further increased
plasma IL-6 level compared to hypertonic saline alone (IL-6): further increased
plasma IL-10, hemorrhagic shock versus resuscitation with hypertonic saline or centhaquin (IL-10): no statistically significant difference
increase of diastolic blood pressure ([1]; 48 hours after resuscitation, control 15.4%): 34.9%
blood urea nitrogen versus control cohort ([1]; baseline and discharge): similar
decrease of serum creatinine level ([1]; baseline to discharge, control 25.35%): 42.61%
increase of glomerular filtration rate ([1]; baseline to discharge, control 40.00%): 81.52%
time spent on ventilator ([1]; control 5.09±3.14 days): 0.85 ± 0.71 days
total amount of vasopressors needed in first 48 hours of resuscitation ([1]; control 18.4±12.1 mg): 1.3 ± 1.2 mg
decrease of blood lactate levels ([1]; control 47%): 63%
time in intensive care unit, of the total hospital stay ([1]; control 57.3%): 39.3%
Total Number of doses administered ([1]; first 48 hours, 12 patients): 13 doses in 12 patients
Number of doses per patient ([1]; first 48 hours, Mean ± SEM): 1.08 ± 0.08
increase in glomerular filtration rate, more compared to standard treatment ([1]; in vivo): 41.52%
reduction of serum creatinine levels, more compared to standard treatment ([1]; in vivo): 17.26%
total blood products administered in the first 48 hours, less than control ([1]; in vivo): 23.4%
total fluids needed in the first 48 hours of resuscitation, less than control ([1]; in vivo): 19.9%
adverse events (primary endpoint of safety) ([1]; patients, N=12): no adverse event was reported
blood pressure increase versus control cohort ([1]; systolic and diastolic, baseline to discharge (FIG. 9)): more than that observed in control cohort
increase of systolic blood pressure from baseline ([1]; until 48 hours after resuscitation, control 34.5%): 45.2%
survival compared to Lactated Ringer's ([2]; 0.015 mg/kg in the fluid resuscitation phase): significantly better survival
cardiac output (CO) ([2]; 0.015 mg/kg): augments CO
systemic vascular resistance (SVR) ([2]; 0.015 mg/kg): reduces systemic vascular resistance
volume of fluids for resuscitation ([2]; 0.015 mg/kg): requires smaller volume of fluids
